Data reported in PMC7018514 (eLife, 2020).

Assays:
[1] = target: T1, human IMPDH2 (Homo sapiens, UniProt P12268, Y12A); experiment: NADH absorbance ([…] nm) activity assay with GTP dose-response; […] inhibited at […] GTP; assay type: biochemical
T1 construct: full-length hIMPDH2, non-assembling mutant

[2] = target: T2, human IMPDH2 (Homo sapiens, UniProt P12268); experiment: cryo-EM structures ([…] Å fully compressed filament segment; […] Å free octamer), plus GTP inhibition kinetics of purified enzyme; assay type: biochemical
T2 construct: full-length hIMPDH2 (SUMO tag removed)
T2 sequence (P12268 2-514): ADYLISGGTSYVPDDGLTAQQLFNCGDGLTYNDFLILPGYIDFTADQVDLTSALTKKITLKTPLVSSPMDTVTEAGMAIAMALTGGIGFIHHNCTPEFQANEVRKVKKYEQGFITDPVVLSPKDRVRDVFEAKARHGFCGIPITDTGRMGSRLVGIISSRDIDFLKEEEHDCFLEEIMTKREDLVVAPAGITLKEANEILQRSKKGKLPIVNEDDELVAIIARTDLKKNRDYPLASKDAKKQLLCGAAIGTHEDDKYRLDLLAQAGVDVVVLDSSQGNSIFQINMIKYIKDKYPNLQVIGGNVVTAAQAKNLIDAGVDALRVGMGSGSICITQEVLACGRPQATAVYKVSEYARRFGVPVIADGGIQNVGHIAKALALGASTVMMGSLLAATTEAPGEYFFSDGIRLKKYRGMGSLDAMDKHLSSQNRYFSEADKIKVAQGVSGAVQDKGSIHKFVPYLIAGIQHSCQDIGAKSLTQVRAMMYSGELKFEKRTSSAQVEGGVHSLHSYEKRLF

[3] = target: T2, human IMPDH2; experiment: cryo-EM structure ([…] Å filament assembly interface); NAD+ saturation kinetics; assay type: binding

T1 sequence (P12268 2-514 Y12A): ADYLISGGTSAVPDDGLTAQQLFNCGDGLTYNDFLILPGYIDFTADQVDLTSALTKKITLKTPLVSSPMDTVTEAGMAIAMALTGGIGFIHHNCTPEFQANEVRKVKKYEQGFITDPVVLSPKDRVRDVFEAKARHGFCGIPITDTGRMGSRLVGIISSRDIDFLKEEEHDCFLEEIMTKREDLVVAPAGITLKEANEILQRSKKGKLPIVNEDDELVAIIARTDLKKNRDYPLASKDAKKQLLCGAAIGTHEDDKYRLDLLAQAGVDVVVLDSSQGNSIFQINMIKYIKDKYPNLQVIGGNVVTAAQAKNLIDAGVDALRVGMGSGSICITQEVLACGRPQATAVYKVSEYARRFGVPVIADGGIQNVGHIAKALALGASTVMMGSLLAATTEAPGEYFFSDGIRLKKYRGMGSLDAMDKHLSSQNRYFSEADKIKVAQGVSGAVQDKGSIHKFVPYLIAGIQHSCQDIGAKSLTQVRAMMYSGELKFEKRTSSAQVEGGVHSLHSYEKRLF

IC50 [1] | IC50 [2] | SMILES | cryo-EM structure (3.0 Å filament assembly interface); NAD+ saturation kinetics [3]
< 2000 µM | > 2000 µM | Nc1nc2c(ncn2[C@@H]2O[C@H](COP(=O)(O)OP(=O)(O)OP(=O)(O)O)[C@@H](O)[C@H]2O)c(=O)[nH]1 [GTP] | 
 |  | NC(=O)c1ccc[n+]([C@@H]2O[C@H](COP(=O)([O-])OP(=O)(O)OC[C@H]3O[C@@H](n4cnc5c(N)ncnc54)[C@H](O)[C@@H]3O)[C@@H](O)[C@H]2O)c1 [NAD+] | There is strong density in the both the IMP and NAD^+ binding sites.
